Six molecules from patent EP4772514A1, “MACROCYCLIC COMPOUNDS, PREPARATION METHOD THEREFOR, AND USE THEREOF” (Genfleet Therapeutics (Shanghai) Inc., priority 2023, dated 2025) can be followed below.

Common to all, as to format: cell-based
In experiment [1] the test system is p-ERK. Briefly: Cell p-ERK assay (HTRF, Advance ERK phospho-T202/Y204 kit) in AsPC-1 cells. The settings on record: ASPC1; AsPC-1, human pancreatic cancer cell strain, KRAS G12D mutation; 3 h compound incubation. The essentials: (§1)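 AsPC-1 (KRAS G12D) or NCI-H441 (KRAS G12V) cells seeded overnight, then treated 3 h at 37 °C with compound (0.1% DMSO) in RPMI-1640/10% FBS. Lysates assayed for ERK phospho-T202/Y204 by HTRF; inhibition vs DMSO and blank wells, IC50 from four-parameter fit.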
In general terms: Time-resolved FRET reads energy transfer from a long-lived donor to a nearby acceptor.

For experiment [2], the system named is p-ERK. Kind of experiment: Cell p-ERK assay (HTRF, Advance ERK phospho-T202/Y204 kit) in NCI-H441 cells. Particulars: Homo sapiens, NCI-H441, 3 h, NCI-H441, human non-small cell lung cancer cell strain, KRAS G12V mutation; 3 h compound incubation. The essentials:
as §1

For experiment [3], the system named is AsPC-1 cells. Briefly: 3D cell proliferation assay (CellTiter Glo-3D) in AsPC-1 cells. The settings on record: ASPC1, 120 h; AsPC-1, human pancreatic cancer cell strain, KRAS G12D mutation; 3D culture, 2% FBS, 5 days; read-out: AsPC-1 AP IC50. From the text:
MIA PaCa-2 cells were purchased from ATCC, Cat. No. CRL-1420; AsPC-1 cells were purchased from ATCC, Cat. No. CRL-1682; NCI-H441 cells were purchased from ATCC, Cat. No. HTB-174; NCI-H1975 cells were purchased from ATCC, Cat. No. CRL-5908; DMEM medium was purchased from Gibco, Cat. No. 11995-065; RPMI-1640 medium was purchased from Gibco, Cat. No. 11875-093; FBS was purchased from Gibco, Cat. No. 10099-141C; penicillin/streptomycin double-antibiotic solution (PS) was purchased from Gibco, Cat. No. 15140-122; Horse serum was purchased from Gibco, Cat. No. 16050130; trypsin (containing EDTA) was purchased from Gibco, Cat. No. 25200-072; DMSO was purchased from VWRAMRESCO, Cat. No. 0231-500ML; 384-well cell culture plates were purchased from Corning, Cat. No. 3830; white-bottomed, opaque 384-well assay plates were purchased from Corning, Cat. No. 3570; CellTiter Glo-3D kit was purchased from Promega, Cat. No. G9683; cell counter was purchased from CHEMOMETEC, model: NC-200; microplate reader was purchased from PerkinElmer, model: EnVision.
MIA PaCa-2, a human pancreatic cancer cell strain endogenously containing a KRAS^G12Cmutation, was cultured in a complete medium containing DMEM + 10% FBS + 2.5% Horse serum + 1% PS. AsPC-1, a human pancreatic cancer cell strain endogenously containing a KRAS^G12D mutation, was cultured in a complete medium containing RPMI-1640 + 10% FBS + 1% PS. NCI-H441 cells, a human lung cancer cell strain endogenously containing a KRAS^G12V mutation, were cultured in a complete medium containing RPMI-1640 + 10% FBS + 1% PS. NCI-H1975, a KRAS wild-type human lung cancer cell strain whose cell proliferation […], was cultured in a complete medium containing RPMI-1640 + 10% FBS + 1% PS.
The cells were digested with trypsin (containing EDTA), collected in their respective low-serum complete media containing 2% FBS (for MIA Paca-2 cell culture: DMEM + 2% FBS + 0.5% Horse serum + 1% PS), and counted. After the cell density was adjusted as required, MIA PaCa-2 cells (200 cells/well), AsPC-1 cells (800 cells/well), NCI-H441 cells (800 cells/well), or NCI-H1975 cells (400 cells/well) were seeded into a 384-well cell culture plate, with the volume of the medium in each well being 45 µL. The cell culture plate was incubated in an incubator at 37 °C with 5% CO2 overnight. A series of 3.16-fold gradient dilutions of a 1000× compound stock solution were prepared with DMSO, and then diluted 100-fold with the complete medium containing 2% FBS described above to give 10× compound stock solutions. On the day after cell seeding, 5 µL of the 10× compound stock solution was added to each cell culture well. As a result, the final concentration of the compound in the cell culture well became 1×, and the DMSO content in the well was 0.1%. In addition to the compound-treated wells described above, cell-containing DMSO control wells (with 5 µL of the complete medium containing 1% DMSO added to each well) and cell-free medium control wells (containing 50 µL of the complete medium with 2% FBS) were also set. The culture plate was incubated in an incubator at 37 °C with 5% CO2 for another 5 days, and then 30 µL of CellTiter-Glo working solution was added to each well. The mixture was well mixed, incubated for 30 min, left to stand at room temperature for 30 min, and then transferred to a white-bottomed, opaque 384-well assay plate at 40 µL/well. The chemiluminescence values (RLU) were measured using a microplate reader, and the cell proliferation inhibition rate for each well was calculated: IR(%) = (RLUDMSO - RLUcompound)/(RLUDMSO - RLUblank) × 100%, where RLUDMSO is the average RLU signal value from the DMSO control well samples, RLUblank is the average RLU signal value from the medium control well samples, and RLUcompound is the RLU signal value from the compound-treated well samples. […]

The test system of experiment [4] is NCI-H441 cells. Briefly: 3D cell proliferation assay (CellTiter Glo-3D) in NCI-H441 cells. Particulars: Homo sapiens, NCI-H441, 120 h, NCI-H441, human lung cancer cell strain, KRAS G12V mutation; 3D culture, 2% FBS, 5 days; read-out: H441 AP IC50. The essentials: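 KRAS^G12V NCI-H441 and KRAS^G12D AsPC-1 cells (800 cells/well each) grown in RPMI-1640 with 2% FBS and treated the day after seeding with 3.16-fold compound dilutions (0.1% DMSO) for 5 days at 37 °C. Viability by CellTiter-Glo 3D luminescence; inhibition versus DMSO and cell-free controls, IC50 from four-parameter fit.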
Background: In ATP-based viability assays light output follows the ATP content of the culture.

On to `CCn1cc2c(c1-c1cc(C#CCN3CCCOCC3)cnc1[C@H](C)OC)CC(C)(C)COC(=O)[C@@H]1CCCN(N1)C(=O)[C@@H](NC(=O)[C@H]1[C@H](C)[C@@H]1C)Cc1nc(cs1)/C=C/2` (atropisomer, axis not shown; (Ra)) [Compound Z69, (1r,2R,3S)-N-((4^2Z,8^3S,2E,6S)-(Ra)-1^5-(5-(3-(1,4-oxazepan-4-yl)prop-1-yn-1-yl)-2-((S)-1-methoxyethyl)pyridin-3-yl)-1^1-ethyl-12,12-dimethyl-7,9-dioxo-8^1,8^2,8^3,8^4,8^5,8^6-hexahydro-1^1H-10-oxa-4(4,2)-thiazola-8(1,3)-pyridazina-1(3,4)-pyrrolacyclotridecaphan-2-en-6-yl)-2,3-dimethylcyclopropane-1-carboxamide], for which the IC50 in experiment [1] was 1.54 nM; in experiment [2] it was 0.9 nM; in experiment [3], 0.67 nM; in experiment [4], 0.58 nM.

Consider `CCn1cc2c(c1-c1cc(C#CCN3CCC3)cnc1[C@H](C)OC)CC(C)(C)COC(=O)[C@@H]1CCCN(N1)C(=O)[C@@H](NC(=O)[C@H]1[C@H](C)[C@@H]1C)Cc1nc(cs1)/C=C/2` (atropisomer, axis not shown; (Ra)) [Compound Z70, (1r,2R,3S)-N-((4^2Z, 8^3S,2E,6S)-(Ra)-1^5-(5-(3-(azetidin-1-yl)prop-1-yn-1-yl)-2-((S)-1-methoxyethyl)pyridin-3-yl)-1^1-ethyl-12,12-dimethyl-7,9-dioxo-8^1,8^2,8^3,8^4,8^5,8^6-hexahydro-1^1H-10-oxa-4(4,2)-thiazola-8(1,3)-pyridazina-1(3,4)-pyrrolacyclotridecaphan-2-en-6-yl)-2,3-dimethylcyclopropane-1-carboxamide], for which the IC50 in experiment [1] came to 3.6 nM; in experiment [2], 2.03 nM; in experiment [3], 1.54 nM; in experiment [4], 1.12 nM.

Regarding `CCn1nc2c(c1-c1cc(C#CCN3CCC(C#N)CC3)cnc1[C@H](C)OC)CC(C)(C)COC(=O)[C@@H]1CCCN(N1)C(=O)[C@@H](NC(=O)[C@H]1[C@H](C)[C@@H]1C)Cc1nc(cs1)/C=C/2` (atropisomer, axis not shown; (Ra)) [Compound Z73, (1r,2R,3S)-N-((4^2Z,8^3S,2E,6S)-(Ra)-1^5-(5-(3-(4-cyanopiperidin-1-yl)prop-1-yn-1-yl)-2-((S)-1-methoxyethyl)pyridin-3-yl)-1^1-ethyl-12,12-dimethyl-7,9-dioxo-8^1,8^2,8^3,8^4,8^5,8^6-hexahydro-1^1H-10-oxa-4(4,2)-thiazola-8(1,3)-pyridazina-1(3,4)-pyrrolacyclotridecaphan-2-en-6-yl)-2,3-dimethylcyclopropane-1-carboxamide], the IC50 amounted to 1.73 nM in experiment [1], 0.88 nM in experiment [2], 1.34 nM in experiment [3] and 0.91 nM in experiment [4].

For `CCn1c(F)c2c(c1-c1cc(C#CCN3CCS(=O)(=O)CC3)cnc1[C@H](C)OC)CC(C)(C)COC(=O)[C@@H]1CCCN(N1)C(=O)[C@@H](NC(=O)[C@H]1[C@H](C)[C@@H]1C)Cc1nc(cs1)/C=C/2` (atropisomer, axis not shown; (Ra)) [Compound Z80, (1r,2R,3S)-N-((4^2Z,8^3S,2E,6S)-(Ra)-1^5-(5-(3-(1,1-dioxidothiomorpholino)prop-1-yn-1-yl)-2-((S)-1-methoxyethyl)pyridin-3-yl)-1^1-ethyl-1^2-fluoro-12,12-dimethy^l-7,9-dioxo-8^1,8^2,8^3,8^4,8^5,8^6-hexahydro-1^1H-10-oxa-4(4,2)-thiazola-8(1,3)-pyridazina-1(3,4)-pyrrolacyclotridecaphan-2-en-6-yl)-2,3-dimethylcyclopropane-1-carboxamide], the IC50 turned out to be 0.24 nM in experiment [1], 0.2 nM in experiment [2], 0.16 nM in experiment [3] and 0.18 nM in experiment [4].

Regarding `CCn1cc2c(c1-c1cc(C#CCN3CCC(C#N)(CN)CC3)cnc1[C@H](C)OC)CC(C)(C)COC(=O)[C@@H]1CCCN(N1)C(=O)[C@@H](NC(=O)[C@H]1[C@@H]3COC[C@@H]31)Cc1nc(co1)/C=C/2` (atropisomer, axis not shown; (Ra)) [Compound Z89, (1R,5S,6r)-N-((4^2Z,8^3S,2E, 6S)-(Ra)-1^5-(5-(3-(4-(aminomethyl)-4-cyanopiperidin-1-yl)prop-1-yn-1-yl)-2-((S)-1-methoxyethyl)pyridin-3-yl)-1^1-ethyl-12,12-dimethyl-7,9-dioxo-8^1,8^2,8^3,8^4,8^5,8^6-hexahydro-1^1 H-10-oxa-4(4,2)-oxazola-8(1,3)-pyridazina-1(3,4)-pyrrolacyclotridecaphan-2-en-6-yl)-3-oxabicyclo[3.1.0]hexane-6-carboxamide], the IC50 in experiment [1] worked out at 0.13 nM; in experiment [2], 0.23 nM; in experiment [3], 0.11 nM; in experiment [4] it was 0.15 nM.

In the case of `CCn1cc2c(c1-c1cc(C#CCN3CCC(C#N)(CO)CC3)cnc1[C@H](C)OC)CC(C)(C)COC(=O)[C@@H]1CCCN(N1)C(=O)[C@@H](NC(=O)[C@H]1[C@H](C)[C@@H]1C)Cc1nc(cs1)/C=C/2` (atropisomer, axis not shown; (Ra)) [Compound Z103, (1r,2R,3S)-N-((4^2Z,8^3S,2E,6S)-(Ra)-1^5-(5-(3-(4-cyano-4-(hydroxymethyl)piperidin-1-yl)prop-1-yn-1-yl)-2-((S)-1-methoxyethyl)pyridin-3-yl)-1^1-ethyl-12,12-dimethyl-7,9-dioxo-8^1,8^2,8^3,8^4,8^5,8^6-hexahydro-1^1H-10-oxa-4(4,2)-thiazola-8(1,3)-pyridazina-1(3,4)-pyrrolacyclotridecaphan-2-en-6-yl)-2,3-dimethylcyclopropane-1-carboxamide], the IC50 in experiment [1] was found to be 0.08 nM; in experiment [2], 0.32 nM; in experiment [3], 0.05 nM; in experiment [4] it was 0.11 nM.

For orientation: IC50 means the concentration that gives 50% inhibition.
